Test results reported in US20120264735A1 (priority 2009, published 2012).

Molecular target: T1, c-Met kinase (recombinant c-Met) (Homo sapiens, UniProt P08581)
T1 construct: 0.27 nM recombinant c-Met
Experiment: In vitro kinase assay I (homogeneous time-resolved fluorescence tyrosine kinase assay)
Format: biochemical
Procedure, shortened: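 Biotinylated peptide (0.5 μM) phosphorylated by 0.2 nM recombinant c-Met with 50 μM MgATP, 60 min at room temperature, pH 7.4, 5% DMSO. EDTA stop; HTRF read with Eu-anti-phosphotyrosine antibody and streptavidin-APC. IC50 from 4-parameter logistic fit.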

T1 sequence (P08581 25-1390): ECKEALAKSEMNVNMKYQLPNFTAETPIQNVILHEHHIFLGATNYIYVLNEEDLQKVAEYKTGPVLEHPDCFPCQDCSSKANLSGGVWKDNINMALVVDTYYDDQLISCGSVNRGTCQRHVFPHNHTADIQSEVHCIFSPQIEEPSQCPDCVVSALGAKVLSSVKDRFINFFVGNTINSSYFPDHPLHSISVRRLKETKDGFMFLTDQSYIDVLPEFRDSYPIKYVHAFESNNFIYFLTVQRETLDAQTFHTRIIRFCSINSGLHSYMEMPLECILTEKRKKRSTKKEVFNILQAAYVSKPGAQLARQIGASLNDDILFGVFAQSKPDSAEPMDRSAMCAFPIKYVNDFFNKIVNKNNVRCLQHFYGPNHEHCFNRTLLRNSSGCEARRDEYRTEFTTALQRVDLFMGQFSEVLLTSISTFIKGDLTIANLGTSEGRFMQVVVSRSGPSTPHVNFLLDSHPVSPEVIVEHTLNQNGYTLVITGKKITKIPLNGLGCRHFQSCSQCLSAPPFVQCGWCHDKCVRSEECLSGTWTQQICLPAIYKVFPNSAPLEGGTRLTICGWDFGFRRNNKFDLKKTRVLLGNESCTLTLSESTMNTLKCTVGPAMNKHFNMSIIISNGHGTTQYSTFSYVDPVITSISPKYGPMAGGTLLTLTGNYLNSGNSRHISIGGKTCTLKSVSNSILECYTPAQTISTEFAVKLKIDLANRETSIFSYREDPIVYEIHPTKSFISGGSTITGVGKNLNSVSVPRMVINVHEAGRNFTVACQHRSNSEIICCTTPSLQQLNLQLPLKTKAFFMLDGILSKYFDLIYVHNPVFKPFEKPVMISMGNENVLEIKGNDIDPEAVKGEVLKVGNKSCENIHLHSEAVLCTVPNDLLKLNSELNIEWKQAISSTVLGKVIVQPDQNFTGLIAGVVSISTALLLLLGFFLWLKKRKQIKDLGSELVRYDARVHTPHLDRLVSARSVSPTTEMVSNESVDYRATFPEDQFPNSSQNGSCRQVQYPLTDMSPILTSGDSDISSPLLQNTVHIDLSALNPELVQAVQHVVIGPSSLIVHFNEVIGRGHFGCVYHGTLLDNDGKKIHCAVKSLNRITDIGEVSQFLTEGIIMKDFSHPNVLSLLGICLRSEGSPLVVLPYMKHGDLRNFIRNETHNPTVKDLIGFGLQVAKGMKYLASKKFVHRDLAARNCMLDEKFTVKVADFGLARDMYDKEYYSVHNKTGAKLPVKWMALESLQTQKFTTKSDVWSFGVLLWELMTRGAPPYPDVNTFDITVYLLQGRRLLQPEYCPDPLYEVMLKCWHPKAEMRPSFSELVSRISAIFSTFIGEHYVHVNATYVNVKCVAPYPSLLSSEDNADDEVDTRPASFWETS

Row | IC50 | SMILES
1 | 100 to 1000 nM | CCc1cnc(-c2cccc(C(C)c3nn(-c4ccc(F)c(F)c4)ccc3=O)c2)nc1 (single isomer, unassigned) [Example 230, 1-(3,4-difluorophenyl)-3-{(1S or R)-1-[3-(5-ethylpyrimidin-2-yl)phenyl]ethyl}pyridazin-4(1H)-one]
2 | 100 to 1000 nM | CC(C)COC(=O)Nc1cccc(Cc2nn(-c3cccc(-c4ccncc4)c3)ccc2=O)c1 [Example 730, 2-methylpropyl (3-{[4-oxo-1-(3-pyridin-4-ylphenyl)-1,4-dihydropyridazin-3-yl]methyl}phenyl) carbarnate]
3 | < 100 nM | O=C(Nc1cccc(Cc2nn(-c3cc(F)c(F)c(F)c3)ccc2=O)c1)OCC1CCOC1 (racemic) [Example 559, rac-tetrahydrofuran-3-ylmethyl (3-{[4-oxo-1-(3,4,5-trifluorophenyl)-1,4-dihydropyridazin-3-yl]methyl}phenyl)carbamate]
4 | 100 to 1000 nM | CCOC(=O)Nc1cccc(C(F)c2nn(-c3ccccc3)ccc2=O)c1 (racemic) [Example 640, rac-Ethyl-{3-[fluoro(4-oxo-1-phenyl-1,4-dihydropyridazin-3-yl)methyl]phenyl}carbamate]
5 | < 100 nM | CC(C)COC(=O)Nc1cccc(Cc2nn(-c3ccc(F)c(F)c3)ccc2=O)c1 [Example 505, 2-methylpropyl (3-{[1-(3,4-difluorophenyl)-4-oxo-1,4-dihydropyridazin-3-yl]methyl}phenyl)carbamate]
6 | < 100 nM | CCn1cnc(-c2cccc(C(C)c3nn(-c4cnn(C)c4)ccc3=O)c2)n1 (single isomer, unassigned) [Example 681, 3-{(1R or S)-1-[3-(1-ethyl-1H-1,2,4-triazol-3-yl)phenyl]ethyl}-1-(1-methyl-1H-pyrazol-4-yl)pyridazin-4(1H)-one]

Second part, the molecule before the results:

Row | SMILES | IC50
7 | CN1CCN(CCCNC(=O)c2cnc(-c3cccc(Cc4nn(-c5cnn(C)c5)ccc4=O)c3)nc2)CC1 [Example 479, N-[3-(4-methyl-piperazin-1-yl)propyl]-2-(3-{[1-(1-methyl-1H-pyrazol-4-yl)-4-oxo-1,4-dihydro-pyridazin-3-yl]methyl}phenyl)pyrimidine-5-carboxamide] | < 100 nM
8 | CCOc1cnc(-c2cccc(Cc3nn(-c4ccc(Br)c(F)c4)ccc3=O)c2)nc1 [Example 145, 1-(4-Bromo-3-fluorophenyl)-3-[3-(5-ethoxypyrimidin-2-yl)benzyl]pyridazin-4(1H)-one] | < 100 nM
9 | COC(C)c1cnc(-c2cccc(Cc3nn(-c4cnn(C)c4)ccc3=O)c2)nc1 (racemic) [Example 166, rac-3-{3-[5-(1-methoxyethyl)pyrimidin-2-yl]benzyl}-1-(1-methyl-1H-pyrazol-4-yl)pyridazin-4(1H)-one] | 100 to 1000 nM
10 | Cn1cc(-n2ccc(=O)c(Cc3cccc(-c4ncc(-c5cnn(C6COC6)c5)cn4)c3)n2)cn1 [Example 435, 1-(1-Methyl-1H-pyrazol-4-yl)-3-{3-[5-(1-oxetan-3-yl-1H-pyrazol-4-yl)pyrimidin-2-yl]benzyl}pyridazin-4(1H)-one] | < 100 nM
11 | CCCn1cnc(-c2cccc(C(C)c3nn(-c4cnn(CC)c4)ccc3=O)c2)n1 (single isomer, unassigned) [Example 688, 1-(1-ethyl-1H-pyrazol-4-yl)-3-{(1S or R)-1-[3-(1-propyl-1H-1,2,4-triazol-3-yl)phenyl]ethyl} pyridazin-4(1H)-one] | 100 to 1000 nM
12 | Cn1cc(-n2ccc(=O)c(Cc3cccc(-c4ncc(C(=O)NCC5COCCO5)cn4)c3)n2)cn1 (racemic) [Example 474, rac-N-(1,4-Dioxan-2-ylmethyl)-2-(3-{[1-(1-methyl-1H-pyrazol-4-yl)-4-oxo-1,4-dihydropyridazin-3-yl]methyl}phenyl)pyrimidine-5-carboxamide] | < 100 nM
13 | Cn1cc(-n2ccc(=O)c(Cc3ccc4ncccc4c3)n2)cn1 [Example 55, 1-(1-methyl-1H-pyrazol-4-yl)-3-(quinolin-6-ylmethyl)pyridazin-4(1H)-one] | 100 to 1000 nM
